One test concerns the target Jarid1B (Homo sapiens (Human), UniProt Q9UGL1). In words: Jarid1B in vitro enzyme inhibition assay (TR-FRET). The test is classed as biochemical. In general terms: TR-FRET usually uses a lanthanide donor and a delayed reading to cut background.
The next test concerns KDM5A and KDM5B. Put plainly: In vitro cell-based assay: tri-methyl H3K4 immuno-blotting in ZR-75-1 cells (cellular inhibition of KDM5A/B). The note with it: ZR-75-1 breast cancer cells, 72 hours, tri-methylated H3K4 level; read-out: IC50 ZR-75-1 cell-MOA.
Another test deals with FBXL10 (Homo sapiens (Human), UniProt Q8NHM5). In words: FBXL10 in vitro enzyme inhibition assay (AlphaScreen). The test is classed as biochemical. The method in brief:
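AlphaScreen read-out of H3K36me1 product, detected with anti-H3K36me1 antibody plus streptavidin donor and Protein A acceptor beads (final 10 μg/ml) in 50 mM HEPES pH 7.3, 10 mM NaCl, 0.005% Brij35, 5 mM EDTA, 2 mg/ml BSA. Beads incubated 2 h to overnight at room temperature; IC50 derived from AlphaScreen signal.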
(Alpha assays give light when donor and acceptor beads are brought close together.)

A further test concerns the target Jarid1A (Homo sapiens (Human), UniProt P29375). Put plainly: Jarid1A in vitro enzyme inhibition assay (TR-FRET). The test is classed as biochemical. From the text: The enzymatic assay of Jarid1A activity is based upon Time Resolved-Fluorescence Resonance Energy Transfer (TR-FRET) detection.
Another test concerns the target JMJD2C (Homo sapiens (Human), UniProt Q9H3R0). In words: JMJD2C in vitro enzyme inhibition assay (TR-FRET). Format: biochemical.
The next test deals with JMJD2A (Homo sapiens (Human), UniProt O75164). Put plainly: JMJD2A in vitro enzyme inhibition assay (TR-FRET). Format: biochemical.

A word on the IC50: it is the concentration at which inhibition is half-maximal.

Jarid1A, sequence (P29375 1-1090): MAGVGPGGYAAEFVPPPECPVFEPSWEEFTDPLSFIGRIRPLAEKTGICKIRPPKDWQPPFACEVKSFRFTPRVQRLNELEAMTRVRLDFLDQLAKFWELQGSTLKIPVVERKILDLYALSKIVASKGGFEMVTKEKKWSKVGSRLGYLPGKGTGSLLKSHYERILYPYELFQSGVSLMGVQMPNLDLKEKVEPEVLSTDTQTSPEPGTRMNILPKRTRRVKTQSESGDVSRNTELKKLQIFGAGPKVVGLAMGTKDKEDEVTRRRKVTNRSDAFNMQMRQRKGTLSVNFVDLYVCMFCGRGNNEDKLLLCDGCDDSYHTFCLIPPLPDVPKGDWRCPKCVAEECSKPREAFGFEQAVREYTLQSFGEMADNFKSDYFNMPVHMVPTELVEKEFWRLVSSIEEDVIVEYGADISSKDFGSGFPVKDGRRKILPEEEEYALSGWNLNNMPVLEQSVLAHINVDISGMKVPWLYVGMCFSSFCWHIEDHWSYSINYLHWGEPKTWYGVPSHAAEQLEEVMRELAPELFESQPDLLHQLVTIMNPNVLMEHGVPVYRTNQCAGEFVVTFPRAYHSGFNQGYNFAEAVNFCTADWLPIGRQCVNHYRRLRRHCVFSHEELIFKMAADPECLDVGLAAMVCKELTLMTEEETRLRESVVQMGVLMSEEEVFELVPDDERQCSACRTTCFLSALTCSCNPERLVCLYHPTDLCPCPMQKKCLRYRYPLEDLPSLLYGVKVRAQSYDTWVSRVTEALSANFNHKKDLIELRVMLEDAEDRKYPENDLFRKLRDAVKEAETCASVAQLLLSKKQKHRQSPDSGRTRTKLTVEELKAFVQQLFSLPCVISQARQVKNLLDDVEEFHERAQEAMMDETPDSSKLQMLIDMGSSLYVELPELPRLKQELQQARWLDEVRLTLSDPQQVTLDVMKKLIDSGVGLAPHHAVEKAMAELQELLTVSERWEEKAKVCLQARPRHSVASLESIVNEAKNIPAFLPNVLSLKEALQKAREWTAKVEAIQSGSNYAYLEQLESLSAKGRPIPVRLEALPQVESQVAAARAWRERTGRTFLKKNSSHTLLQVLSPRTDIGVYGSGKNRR
FBXL10, sequence (Q8NHM5 1-650): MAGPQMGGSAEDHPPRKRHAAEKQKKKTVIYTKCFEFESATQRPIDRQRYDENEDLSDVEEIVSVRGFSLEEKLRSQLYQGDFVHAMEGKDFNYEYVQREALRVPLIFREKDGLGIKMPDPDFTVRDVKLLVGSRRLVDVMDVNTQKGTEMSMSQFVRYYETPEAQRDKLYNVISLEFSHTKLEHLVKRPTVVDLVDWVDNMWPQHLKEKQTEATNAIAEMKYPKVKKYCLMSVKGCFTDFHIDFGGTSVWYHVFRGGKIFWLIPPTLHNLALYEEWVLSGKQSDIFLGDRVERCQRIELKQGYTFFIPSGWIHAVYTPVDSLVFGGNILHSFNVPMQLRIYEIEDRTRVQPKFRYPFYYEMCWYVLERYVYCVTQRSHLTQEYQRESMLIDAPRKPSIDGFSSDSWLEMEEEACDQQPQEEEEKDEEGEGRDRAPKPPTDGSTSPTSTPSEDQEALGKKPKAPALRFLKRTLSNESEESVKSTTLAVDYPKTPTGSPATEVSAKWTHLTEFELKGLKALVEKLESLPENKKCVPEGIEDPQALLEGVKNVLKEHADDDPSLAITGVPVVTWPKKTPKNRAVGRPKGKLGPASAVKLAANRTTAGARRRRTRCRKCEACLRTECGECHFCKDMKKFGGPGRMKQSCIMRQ
Jarid1B, sequence (Q9UGL1 2-751): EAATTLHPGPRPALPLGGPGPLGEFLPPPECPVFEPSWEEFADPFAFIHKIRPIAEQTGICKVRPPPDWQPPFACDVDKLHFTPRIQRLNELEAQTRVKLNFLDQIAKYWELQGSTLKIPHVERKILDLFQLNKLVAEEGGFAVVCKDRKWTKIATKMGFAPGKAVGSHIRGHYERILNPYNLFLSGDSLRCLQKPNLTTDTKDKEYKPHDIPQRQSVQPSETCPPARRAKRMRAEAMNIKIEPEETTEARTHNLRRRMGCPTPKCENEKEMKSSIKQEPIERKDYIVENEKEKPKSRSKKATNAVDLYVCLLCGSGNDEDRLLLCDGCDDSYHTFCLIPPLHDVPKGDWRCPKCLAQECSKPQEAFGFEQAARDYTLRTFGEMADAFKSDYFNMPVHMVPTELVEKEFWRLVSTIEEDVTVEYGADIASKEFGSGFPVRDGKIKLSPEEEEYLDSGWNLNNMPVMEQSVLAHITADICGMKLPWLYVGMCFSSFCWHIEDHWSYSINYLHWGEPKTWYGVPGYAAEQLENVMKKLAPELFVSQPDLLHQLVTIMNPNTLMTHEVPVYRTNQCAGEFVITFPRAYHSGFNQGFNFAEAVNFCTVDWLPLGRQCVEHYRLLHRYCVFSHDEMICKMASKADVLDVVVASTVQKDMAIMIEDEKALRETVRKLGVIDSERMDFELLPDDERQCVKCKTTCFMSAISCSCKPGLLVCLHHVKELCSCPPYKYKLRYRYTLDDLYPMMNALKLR
JMJD2A, sequence (O75164 1-350): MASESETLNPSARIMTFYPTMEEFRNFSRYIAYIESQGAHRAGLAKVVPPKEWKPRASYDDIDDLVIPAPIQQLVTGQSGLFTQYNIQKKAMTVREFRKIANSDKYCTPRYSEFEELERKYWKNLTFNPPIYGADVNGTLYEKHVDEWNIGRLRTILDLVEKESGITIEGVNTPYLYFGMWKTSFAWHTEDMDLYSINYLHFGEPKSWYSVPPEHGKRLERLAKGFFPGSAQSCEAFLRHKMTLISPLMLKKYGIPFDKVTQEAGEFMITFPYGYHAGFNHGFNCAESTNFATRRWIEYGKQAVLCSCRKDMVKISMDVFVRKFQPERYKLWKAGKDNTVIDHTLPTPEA
JMJD2C, sequence (Q9H3R0 2-372): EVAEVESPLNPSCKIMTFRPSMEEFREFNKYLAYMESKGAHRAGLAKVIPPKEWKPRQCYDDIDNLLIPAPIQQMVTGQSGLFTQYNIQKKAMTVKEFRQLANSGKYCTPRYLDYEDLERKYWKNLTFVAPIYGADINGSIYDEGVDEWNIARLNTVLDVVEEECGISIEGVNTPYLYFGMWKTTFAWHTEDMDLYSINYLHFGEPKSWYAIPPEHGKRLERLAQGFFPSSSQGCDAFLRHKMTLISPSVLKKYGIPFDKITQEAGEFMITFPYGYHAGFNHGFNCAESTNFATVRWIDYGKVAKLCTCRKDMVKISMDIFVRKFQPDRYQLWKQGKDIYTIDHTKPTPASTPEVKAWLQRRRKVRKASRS
Protocol for Jarid1B: This assay determines the ability of a test compound to inhibit Jarid1A, Jarid1B, JMJD2C, and JMJD2A demethylase activity.
The ability of test compounds to inhibit the activity of Jarid1B was determined in 384-well plate format under the following reaction conditions: 0.8 nM Jarid1B, 300 nM H3K4me3-biotin labeled peptide (Anaspec cat #64357), 2 μM alpha-ketoglutaric acid in assay buffer of 50 mM HEPES, pH7.3, 0.005% Brij35, 0.5 mM TCEP, 0.2 mg/ml BSA, 50 μM sodium L-ascorbate, and 2 μM ammonium iron(II) sulfate. Reaction product was determined quantitatively by TR-FRET after the addition of detection reagent Phycolink Streptavidin-allophycocyanin (Prozyme) and Europium-anti-mono- or di-methylated histone H3 lysine 4 (H3K4me1-2) antibody (PerkinElmer) in the presence of 5 mM EDTA in LANCE detection buffer (PerkinElmer) at a final concentration of 25 nM and 1 nM, respectively.
The assay reaction was initiated by the following: 2 μl of the mixture of 900 nM H3K4me3-biotin labeled peptide and 6 μM alpha-ketoglutaric acid with 2 μl of 11-point serial diluted inhibitor in 3% DMSO was added to each well of the plate, followed by the addition of 2 μl of 2.4 nM Jarid1B to initiate the reaction. The reaction mixture was incubated at room temperature for 30 minutes, and terminated by the addition of 6 μl of 5 mM EDTA in LANCE detection buffer containing 50 nM Phycolink Streptavidin-allophycocyanin and 2 nM Europium-anti-H3K4me1-2 antibody. Plates were read by EnVisionMultilabel Reader in TR-FRET mode (excitation at 320 nm, emission at 615 nm and 665 nm) after 1 hour incubation at room temperature. A ratio was calculated (665/615) for each well and fitted to determine inhibition constant (IC50).
Protocol for KDM5A and KDM5B: This quantitative immuno-blotting assay measures the amount tri-methylated histone H3 at amino acid Lysine number 4, a specific substrate and product of the direct enzymatic activity of the histone demethylases KDM5A and KDM5B from extracts of the ZR-75-1 breast cancer cell line.
This assay is a fluorometric immunoassay for the quantification of tri-methyl H3K4 extracted from cells treated with test compound and is used as a measure of the cellular inhibition of KDM5A/B.
Extracts were prepared containing all of the cellular histone material using detergent based lysis and sonication methods. These lysates were subsequently normalized for total protein content using a colorimetric bicinchonic acid assay (MicroBCA Pierce/Thermo Scientific). Normalized cell extracts were then subjected to typical immuno-blotting procedures using NuPage reagents (Life Technologies). Electrophoretically separated histones were then transferred and immobilized using polyvinylidene difluoride membrane (Immobilon-FL Millipore). The amount of tri-methylated lysine 4 of histone H3 was detected using an antibody specific to the tri-methylated state (Cell Signaling Technologies) and quantified on an infrared imager using a densitometry software package (Odyssey CLx, Image Studio, Li-Cor). This background subtracted densitometry value was reported as a ration of the GAPDH amount for that sample and then calculated as a percent of the DMSO treated sample. The software package XL-fit (IDBS) was then used to calculate a relative IC50 value for the dilution series of a given test compound according to the equation: fit=(D+((Vmax*(x^n))/((x^n)+(Km^n)))).

On to `O=C(O)c1ccnc(-c2cn(Cc3cccc(F)c3)cn2)c1` [Example 104, 2-[1-[(3-fluorophenyl)methyl]imidazol-4-yl]pyridine-4-carboxylic], for which the IC50 at Jarid1B was not above 100 nM; in the test on KDM5A and KDM5B it was more than 10000 nM; against FBXL10, not above 100 nM; against Jarid1A, not above 100 nM; against JMJD2C it was 100 to 1000 nM.
On to `COc1ccccc1CCn1cnc(-c2cc(C(=O)O)ccn2)c1` [Example 95, 2-[1-[2-(2-methoxyphenyl)ethyl]imidazol-4-yl]pyridine-4-carboxylic acid], for which the IC50 on Jarid1B is not above 100 nM; with KDM5A and KDM5B, more than 10000 nM; against FBXL10, not above 100 nM; on Jarid1A it was not above 100 nM; at JMJD2A it was 100 to 1000 nM; on JMJD2C it was 100 to 1000 nM.
On to `O=C(O)c1ccnc(-c2cn(Cc3ccccc3F)cn2)c1` [Example 102, 2-[1-[(2-fluorophenyl)methyl]imidazol-4-yl]pyridine-4-carboxylic acid], for which the IC50 is not above 100 nM against Jarid1B; 1000 to 10000 nM in the test on KDM5A and KDM5B; not above 100 nM against FBXL10; not above 100 nM against Jarid1A; 100 to 1000 nM on JMJD2A; 100 to 1000 nM against JMJD2C.
Take `COc1ccc(-c2c(-c3cc(C(=O)O)ccn3)ncn2C)cc1` [Example 12, 2-[5-(4-methoxyphenyl)-1-methyl-1H-imidazol-4-yl]pyridine-4-carboxylic acid]: in the test with KDM5A and KDM5B, the IC50 is 1000 to 10000 nM.
Turning to `CCCn1cnc(-c2cc(C(=O)O)ccn2)c1` [Example 41, 2-(1-propyl-1H-imidazol-4-yl)pyridine-4-carboxylic acid], the IC50 at Jarid1B is not above 100 nM; in the test with KDM5A and KDM5B, 1000 to 10000 nM; against FBXL10 it was not above 100 nM; against Jarid1A, not above 100 nM; against JMJD2C, not above 100 nM.
Take `Cn1cnc(-c2cc(C(=O)O)ccn2)c1-c1ccc(Cl)c(F)c1` [Example 29, 2-[5-(4-chloro-3-fluorophenyl)-1-methyl-1H-imidazol-4-yl]pyridine-4-carboxylic acid]: the IC50 was not above 100 nM at Jarid1B; more than 10000 nM in the test with KDM5A and KDM5B; not above 100 nM against FBXL10; not above 100 nM on Jarid1A; 100 to 1000 nM at JMJD2C.
With `O=C(O)c1ccnc(-c2cn(CCc3ccccc3F)cn2)c1` [Example 93, 2-[1-[2-(2-fluorophenyl)ethyl]imidazol-4-yl]pyridine-4-carboxylic acid], the IC50 is not above 100 nM against Jarid1B; 1000 to 10000 nM in the test on KDM5A and KDM5B; not above 100 nM on FBXL10; not above 100 nM against Jarid1A; not above 100 nM against JMJD2C.
In the case of `Cn1cnc(-c2cc(C(=O)O)ccn2)c1-c1ccc(Cl)cc1` [Example 19, 2-[5-(4-chlorophenyl)-1-methyl-1H-imidazol-4-yl]pyridine-4-carboxylic acid], the IC50 against Jarid1B was not above 100 nM; with KDM5A and KDM5B, 1000 to 10000 nM; on FBXL10, not above 100 nM; against Jarid1A it was not above 100 nM; against JMJD2C, 100 to 1000 nM.
Take `O=C(O)c1ccnc(-c2cn(CCc3ccc(F)cc3)cn2)c1` [Example 92, 2-[1-[2-(4-fluorophenyl)ethyl]imidazol-4-yl]pyridine-4-carboxylic acid]: the IC50 is not above 100 nM against Jarid1B; 1000 to 10000 nM with KDM5A and KDM5B; not above 100 nM against FBXL10; not above 100 nM on Jarid1A; not above 100 nM against JMJD2C.
On to `Cn1cnc(-c2cc(C(=O)O)ccn2)c1-c1ccc(OCC2CC2)cc1` [Example 16, 2-{5-[4-(cyclopropylmethoxy)phenyl]-1-methyl-1H-imidazol-4-yl}pyridine-4-carboxylic acid], for which the IC50 against Jarid1B is not above 100 nM; in the test on KDM5A and KDM5B it was 1000 to 10000 nM; against FBXL10, 100 to 1000 nM; against Jarid1A, not above 100 nM; at JMJD2C, 100 to 1000 nM.
As for `CCCn1cnc(-c2cc(C(=O)O)ccn2)c1-c1ccc(Cl)c(F)c1` [Example 35, 2-[5-(4-chloro-3-fluorophenyl)-1-propyl-1H-imidazol-4-yl]pyridine-4-carboxylic acid], the concentration for half-maximal inhibition (IC50) is not above 100 nM at Jarid1B; more than 10000 nM in the test with KDM5A and KDM5B; not above 100 nM against FBXL10; not above 100 nM against Jarid1A; 100 to 1000 nM against JMJD2C.
With `Cn1cnc(-c2cc(C(=O)O)ccn2)c1-c1cccc(Cl)c1` [Example 20, 2-[5-(3-chlorophenyl)-1-methyl-1H-imidazol-4-yl]pyridine-4-carboxylic acid], the IC50 on Jarid1B was not above 100 nM; with KDM5A and KDM5B, more than 10000 nM; on FBXL10, not above 100 nM; on Jarid1A, not above 100 nM; against JMJD2C it was 100 to 1000 nM.
Regarding `Cn1cnc(-c2cc(C(=O)O)ccn2)c1-c1ccc(C2CC2)cc1` [Example 7, 2-[5-(4-cyclopropylphenyl)-1-methyl-1H-imidazol-4-yl]pyridine-4-carboxylic acid], the IC50 is not above 100 nM at Jarid1B; more than 10000 nM with KDM5A and KDM5B; 100 to 1000 nM against FBXL10; not above 100 nM against Jarid1A; 1000 to 10000 nM against JMJD2C.
Turning to `O=C(O)c1ccnc(-c2cn(CCNCC3CCC(F)(F)CC3)cn2)c1` [Example 72, 2-[1-[2-[(4,4-difluorocyclohexyl)methylamino]ethyl]imidazol-4-yl]pyridine-4-carboxylic acid], the IC50 against Jarid1B was not above 100 nM; in the test with KDM5A and KDM5B, 1000 to 10000 nM; on FBXL10 it was not above 100 nM; against Jarid1A, not above 100 nM; on JMJD2C it was not above 100 nM.
Take `Cc1ccc(-c2c(-c3cc(C(=O)O)ccn3)ncn2C)cc1O` [Example 3, 2-[5-(3-hydroxy-4-methylphenyl)-1-methyl-1H-imidazol-4-yl]pyridine-4-carboxylic acid]: the IC50 at Jarid1B is not above 100 nM; with KDM5A and KDM5B, more than 10000 nM; against FBXL10 it was 100 to 1000 nM; at Jarid1A, not above 100 nM; against JMJD2C, 1000 to 10000 nM.
Turning to `CC(Cc1ccccc1)n1cnc(-c2cc(C(=O)O)ccn2)c1` (centres unmarked) [Example 106, 2-[1-(1-phenylpropan-2-yl)imidazol-4-yl]pyridine-4-carboxylic acid], the IC50 at Jarid1B is not above 100 nM; in the test on KDM5A and KDM5B, 1000 to 10000 nM; on FBXL10 it was not above 100 nM; against Jarid1A, not above 100 nM; at JMJD2C it was 100 to 1000 nM.
For the compound `Cn1cnc(-c2cc(C(=O)O)ccn2)c1-c1ccc(N2CCCC2)cc1` [Example 18, 2-{1-methyl-5-[4-(pyrrolidin-1-yl)phenyl]-1H-imidazol-4-yl}pyridine-4-carboxylic acid], the IC50 on Jarid1B was not above 100 nM; in the test on KDM5A and KDM5B, 1000 to 10000 nM; on Jarid1A, not above 100 nM; at JMJD2C, 100 to 1000 nM.
Consider `Cn1cnc(-c2cc(C(=O)O)ccn2)c1-c1ccc2cc[nH]c2c1` [Example 22, 2-[5-(1H-indol-6-yl)-1-methyl-1H-imidazol-4-yl]pyridine-4-carboxylic acid], for which the IC50 is not above 100 nM against Jarid1B; more than 10000 nM with KDM5A and KDM5B; not above 100 nM against FBXL10; not above 100 nM against Jarid1A; 100 to 1000 nM against JMJD2C.
As to `Cn1cnc(-c2cc(C(=O)O)ccn2)c1-c1ccc(-n2cccn2)cc1` [Example 15, 2-{1-methyl-5-[4-(1H-pyrazol-1-yl)phenyl]-1H-imidazol-4-yl}pyridine-4-carboxylic acid], the IC50 was not above 100 nM at Jarid1B; 1000 to 10000 nM in the test with KDM5A and KDM5B; 100 to 1000 nM at FBXL10; not above 100 nM on Jarid1A; 100 to 1000 nM at JMJD2C.
Regarding `CN(C)CCn1cnc(-c2cc(C(=O)O)ccn2)c1` [Example 40, 2-{1-[2-(dimethylamino)ethyl]-1H-imidazol-4-yl}pyridine-4-carboxylic acid], the IC50 is not above 100 nM against Jarid1B; 1000 to 10000 nM with KDM5A and KDM5B; not above 100 nM against Jarid1A; not above 100 nM against JMJD2C.
For `O=C(O)c1ccnc(-c2cn(Cc3ccccc3)cn2)c1` [Example 100, 2-(1-benzylimidazol-4-yl)pyridine-4-carboxylic acid], the IC50 on Jarid1B is not above 100 nM; in the test on KDM5A and KDM5B, 1000 to 10000 nM; at FBXL10 it was not above 100 nM; against Jarid1A it was not above 100 nM; against JMJD2C it was 100 to 1000 nM.
`Clc1ccccc1Cn1cnc(-c2cc(-c3nn[nH]n3)ccn2)c1` [Example 129, 2-[1-[(2-chlorophenyl)methyl]imidazol-4-yl]-4-(2H-tetrazol-5-yl)pyridine]: the IC50 was not above 100 nM against Jarid1B; not above 100 nM on FBXL10; 100 to 1000 nM against Jarid1A; more than 10000 nM at JMJD2A; 1000 to 10000 nM against JMJD2C.
As for `CCN(CCn1cnc(-c2cc(C(=O)O)ccn2)c1)Cc1ccc(F)cc1` [Example 70, 2-[1-[2-[ethyl-[(4-fluorophenyl)methyl]amino]ethyl]imidazol-4-yl]pyridine-4-carboxylic acid], the IC50 at Jarid1B, against FBXL10, at Jarid1A, on JMJD2A and at JMJD2C was not above 100 nM throughout.
As to `FC(F)(F)c1ccccc1CCn1cnc(-c2cc(-c3nn[nH]n3)ccn2)c1` [Example 140, 4-(2H-tetrazol-5-yl)-2-[1-[2-[2-(trifluoromethyl)phenyl]ethyl]imidazol-4-yl]pyridine], the IC50 against Jarid1B was not above 100 nM; at FBXL10 it was not above 100 nM; against Jarid1A it was 100 to 1000 nM; on JMJD2A, more than 10000 nM; at JMJD2C, 1000 to 10000 nM.

The values above are taken from patent US10273222B2 (CELGENE QUANTICEL RESEARCH, INC., priority 2013, dated 2019).
